From US9072746B2, “Method for enhancing learning and memory impaired by neurodegenerative disorders and compounds and compositions for effecting the same” (The Board of Trustees of the Leland Stanford Junior …, priority 2010, dated 2015) come the findings set out here.

Common to all, as to format: in vivo
In assay [1] the test system is male Ts65Dn mice. The assay is described as follows: Novel object recognition. Conditions: xamoterol 3 mg/kg s.c. How it is done: (§1) In this part of the study, activity chamber and three cognitive tests, including T-maze spontaneous alternation, contextual fear conditioning (CFC), and novel object recognition were performed. In T-maze spontaneous alternation and contextual fear conditioning, both Ts65Dn and 2N male mice were divided into three treatment groups including normal saline (Vehicle), xamoterol, and betaxolol plus xamoterol groups. In the novel object recognition test, both Ts65Dn and 2N male mice were divided into two treatment groups, normal saline and xamoterol. The T-maze was performed exactly as previously described. […] On the first day (training day), animals were placed in the fear conditioning chamber, and after a 3-minute pre-shock period, they were exposed to 5 shocks (2 s, 0.5 mA,) with inter-trial intervals of 80 seconds and no tone. On the second day, the animals first received xamoterol, xamoterol plus betaxolol, or saline injection, and one hour later, they were placed in the same chamber for 5 minutes. Similar to the previous description of fear conditioning, freezing was defined as the complete lack of motion for a minimum of o.75 second. The Novel Object Recognition task is conducted in an open field arena (40 cm×40 cm). Mice were habituated in the testing room for 1 hour followed by 5 minutes habituation inside the arena without any objects. On 4th day animals were introduced 3 times to arena with 3 identical subjects for 10 minutes with 3 minutes inter trial intervals. On 5th day (24 hours after trainings) one of the objects replaced by a novel one and the time sniffing of each object were used for analysis. For testing the role of β1 adrenergic system, xamoterol and betaxolol (Tocris Bioscience, Ellisville, Mo.) were injected subcutaneously using 10 ml/kg normal saline as vehicle. Xamoterol, (3 mg/kg) was given one hour before testing and betaxolol (1 mg/kg) was given 30 minutes before testing.

The test system of assay [2] is male 2N mice. The assay is described as follows: Novel object recognition. Conditions: xamoterol 3 mg/kg s.c. How it is done:
as §1

Assay [3] has as its system male Ts65Dn mice. The assay is described as follows: T-maze spontaneous alternation. The conditions noted are these: for effect on T-maze spontaneous alternation deficit: xamoterol 3 mg/kg s.c.
Excerpt: as §1, with “The T-maze had 3 equal arms (30 cm length, 10 cm width, and 20 cm height). The start arm and 2 goal arms had guillotine gates. This test was based on the rodents' preference to experience a new arm of the T-maze instead of a familiar one ([…], 1998). In each trial, the mouse was placed in the start arm. The gate was then opened and the mouse was able to freely explore the arms. As soon as the mouse entered one goal arm, the sliding gate of the other goal arm closed. The mouse eventually returned to the start arm and the next trial was started. In the next trial, the mouse may recognize the previously chosen goal arm and choose to explore a new arm rather than revisit the previously visited arm. This trial was repeated 11 times per day for 3 consecutive days, for a total of 33 trials. The maze was cleaned with 50% ethanol between trials to eliminate odor. Percent of alternation (number of turns in each goal arm) was used for analysis. This protocol has been described before by Belichenko et al. (2009) and is modified from a Deacon and Rawlins (2006) protocol (Deacon and Rawlins, 2006; Belichenko et al., 2009). […] In this” for “In this”

Assay [4] concerns male 2N mice. The assay is described as follows: T-maze spontaneous alternation. Conditions: xamoterol 3 mg/kg s.c. 1 h, betaxolol 1 mg/kg s.c. 30 min before testing.
Excerpt: as §1, with “The T-maze had 3 equal arms (30 cm length, 10 cm width, and 20 cm height). The start arm and 2 goal arms had guillotine gates. This test was based on the rodents' preference to experience a new arm of the T-maze instead of a familiar one ([…], 1998). In each trial, the mouse was placed in the start arm. The gate was then opened and the mouse was able to freely explore the arms. As soon as the mouse entered one goal arm, the sliding gate of the other goal arm closed. The mouse eventually returned to the start arm and the next trial was started. In the next trial, the mouse may recognize the previously chosen goal arm and choose to explore a new arm rather than revisit the previously visited arm. This trial was repeated 11 times per day for 3 consecutive days, for a total of 33 trials. The maze was cleaned with 50% ethanol between trials to eliminate odor. Percent of alternation (number of turns in each goal arm) was used for analysis. This protocol has been described before by Belichenko et al. (2009) and is modified from a Deacon and Rawlins (2006) protocol (Deacon and Rawlins, 2006; Belichenko et al., 2009). […] In this” for “In this”

“Also recorded” adds a separate entry of the source.

For `O=C(NCCNCC(O)COc1ccc(O)cc1)N1CCOCC1` (stereo not shown) [xamoterol], the “% of Total Investigation in Novel Object Recognition, Mean ± SEM” value in the assay with male Ts65Dn mice [1] was 73.6 ± 4.2%; in the assay with male 2N mice [2] (male 2N mice), 78.6 ± 2.6%. Further, the figures for the “effect on novel object recognition deficit” value in the assay on male Ts65Dn mice [1] and with male Ts65Dn mice [1] (listed as Xamoterol) were “completely rescue; also recorded: corrected” and “could correct”, respectively. The “effect on novel object recognition performance” value in the assay with male 2N mice [2] (2N mice) is on record as “had no effect”. Further, the figures for the “effect on T-maze spontaneous alternation deficit” value in the assay on male Ts65Dn mice [3], in the assay on male Ts65Dn mice [3] (listed as Xamoterol) and in the assay on male Ts65Dn mice [3] (listed as Xamoterole) were “completely rescue; also recorded: rescued”, “rescued” and “Xamoterole can rescue the deficit in”, respectively. The “% of Spontaneous Alternation in T-maze, Mean ± SEM” value amounted to 60.4 ± 4.5% in the assay on male Ts65Dn mice [3] (xamoterol 3 mg/kg s.c. 1 h, betaxolol 1 mg/kg s.c. 30 min before testing) and 64.4 ± 2.1% in the assay on male 2N mice [4].
